# US20230046078A1, “METHODS OF USING SUBSTITUTED FLAVONES FOR TREATING BONE DISORDERS” (EMORY UNIVERSITY, priority 2021, published 2023)
# Entries after “also recorded” stand apart in the source; their conditions may differ.
# What was measured:
# BDNF/TrkB signaling = test: Immunoblotting of p-TrkB signaling in bone marrow after oral R13; assay type: in vivo, mice; conditions: R13-derived 7,8-DHF after oral administration of R13
# MC3T3-E1 cells [1] = assay type: cell-based, Murine; conditions: OIM, 4 days
# AEP = AEP activity assay on MC3T3-E1 cell lysates; assay type: cell-based, Murine; conditions: MC3T3 cells in OIM; substrate Z-Ala-Ala-Asn-AMC
# Method: Cell lysates (10 μg) were incubated in 200 μl assay buffer (20 mM citric acid, 60 mM Na2HPO4, 1 mM EDTA, 0.1% CHAPS, and 1 mM DTT, pH 6.0) containing 20 μM δ-secretase substrate Z-Ala-Ala-Asn-AMC (Bachem, Bubendorf, Switzerland). AMC released by substrate cleavage was quantified by measuring at 460 nm in a fluorescence plate reader at 37° C. for 2 h in kinetic mode.
# MC3T3-E1 cells [2] = assay type: cell-based, Murine; conditions: OIM, four days
# Method: Total RNA was isolated by TRIzol (Life Technologies, Carlsbad, Calif.). Reverse transcription was performed with SuperScript III reverse transcriptase (Life Technologies). Gene-specific primers and probes were designed and bought from Taqman (Life Technologies). All real-time PCR reactions were performed using the ABI 7500-Fast Real-Time PCR System and the Taqman Universal Master Mix Kit (Life Technologies). The relative quantification of gene expression was calculated using the ΔΔCt method. Predesigned real-time PCR primers from Applied Biosystems (Waltham, Mass.) were used for the analysis of Opg (Tnfrsf11b; Mm0043545_m1), RANK-L (Tnfsf11; Mm00441908_m1), AEP (Lgmn; Mm01325350_m1), GAPDH (Gapdh; Mm99999915_g1).
# MC3T3-E1 cells [3] = test: ELISA of OPG and RANK-L secreted into the medium of MC3T3 cells; assay type: cell-based, Murine; conditions: OIM; vs OIM alone
# Excerpt: FIG. 9, Panel A contains representative images of ALP staining in […] cells treated with BDNF or 7,8-DHF combined with or without K252a for 14 days (n=3 independent experiments) (Scale bar, 5 mm (upper panel), 200 μm (lower panel)). […] FIG. 9, Panel C contains Western blots for MC3T3 cells cultured in complete medium or osteogenic induction medium (OIM) with BDNF or 7,8 DHF combined with or without K252a for 4 days. […] FIG. 9, Panel D contains graphs of the relative protein levels of C/EBPP, p-C/EBPβ, AEP, RANK-L, OPG, Osterix, p-TrkB/TrkB and p-Akt/AKT in MC3T3 cells cultured in the complete medium or OIM with BDNF or 7,8-DHF combined with or without K252a for four days. Data are shown as mean±SEM of three independent experiments, one-way ANOVA. Data are shown in each graph from left to right as 1) Control, 2) OIM+DMSO, 3) OIM+BDNF, 4) OIM+7,8-DHF, 5) OIM+BDNF+K252a, and 6) OIM+7,8-DHF+K252a. FIG. 9, Panel E contains graphs of an AEP enzymatic activity assay. BDNF and 7,8-DHF inhibit AEP activities, and K252a abolish BDNF and 7,8-DHF's effects. Data are shown as mean±SEM of 3 independent experiments, one-way ANOVA. Data are shown in each graph from left to right as 1) Control, 2) OIM+DMSO, 3) OIM+BDNF, 4) OIM+7,8-DHF, 5) OIM+BDNF+K252a, and 6) OIM+7,8-DHF+K252a. FIG. 9, Panel F contains graphs of qPCR results showing that OPG mRNA expression increases in MC3T3 cells after 7,8-DHF treatment for four days. Data are shown as mean±SEM of three independent experiments, one-way ANOVA. Data are shown in each graph from left to right as 1) Control, 2) OIM+DMSO, 3) OIM+BDNF, 4) OIM+7,8-DHF, 5) OIM+BDNF+K252a, and 6) OIM+7,8-DHF+K252a. FIG. 9, Panel G contains graphs showing that 7,8-DHF increases OPG and decreases the RANK-L/OPG ratio. Levels of OPG and RANK-L proteins secreted into the medium were measured by ELISA. Data are shown as mean±SEM of 3 independent experiments, one-way ANOVA. Data are shown in each graph from left to right as 1) Control, 2) OIM+DMSO, 3) OIM+BDNF, 4) OIM+7,8-DHF, 5) OIM+BDNF+K252a, and 6) OIM+7,8-DHF+K252a.
# TrkB = conditions: primary neurons; read-out: EC50 for activating TrkB; cited from earlier work
# MC3T3-E1 cells [4] = conditions: OIM
# Method: MC3T3-E1 cells were seeded onto plates in complete medium and cultured for 24 days, until the cells reached 70% confluence.
# MC3T3-E1 and RAW 264.7 cells were washed with ice-cold PBS and lysed in (50 mM Tris, pH 7.4, 40 mM NaCl, 1 mM EDTA, 0.5% Triton X-100, 1.5 mM Na3VO4, 50 mM NaF, 10 mM sodium pyrophosphate, 10 mM sodium β-glycerophosphate, supplemented with protease inhibitor cocktail) at 4° C. for 0.5 h, and centrifuged for 25 min at 15,000 rpm. The supernatant was boiled in SDS loading buffer. After SDS-PAGE, the samples were transferred to a nitrocellulose membrane. The membrane was blocked with TBS containing 5% nonfat milk and 0.1% Tween 20 (TBST) at room temperature for 2 hours, followed by the incubation with primary antibody at 4° C. overnight, and with the secondary antibody at room temperature for 2 hours. After washing with TBST, the membrane was developed using the enhanced chemiluminescent (ECL) detection system.
# To further interrogate the molecular mechanism of 7,8-DHF in promoting OPG expression, a time course study in MC3T3-E1 cells in the presence of OIM was conducted.
smiles,measurement,setting,value
"O=c1cc(-c2ccccc2)oc2c(O)c(O)ccc12 [7,8-DHF]","BDNF/TrkB signaling in the bone marrow (p-TrkB, AKT, MAPK phosphorylation)",BDNF/TrkB signaling,activates
same,AEP expression,MC3T3-E1 cells [1],diminished
same,RANK-L protein (Western blot),MC3T3-E1 cells [1],augmentation
same,AEP protease activities,AEP,greatly blocked; also recorded: inhibit
same,RANK-L mRNA,MC3T3-E1 cells [2],elevated
same,OPG protein secreted into the medium,MC3T3-E1 cells [3],further augmented; also recorded: increases
same,RANK-L protein secreted into the medium,MC3T3-E1 cells [3],further augmented
same,RANK-L/OPG ratio (ELISA),MC3T3-E1 cells [3],"OIM alone were significantly higher than BDNF and 7,8-DHF; also recorded: decreases"
same,EC50,TrkB,~50 nM
same,CREB or c-Jun levels,MC3T3-E1 cells [4]; siRNA experiment,without interfering
same,p-Akt,MC3T3-E1 cells [4]; time course 0-60 min,activated
same,p-C/EBPβ signal,MC3T3-E1 cells [4]; time course 0-60 min,time-dependently increased
same,p-CREB signal,MC3T3-E1 cells [4]; time course 0-60 min,time-dependently increased
same,p-MAPK,MC3T3-E1 cells [4]; time course 0-60 min,activated
same,p-TrkB,MC3T3-E1 cells [4]; time course 0-60 min,activated
same,p-c-Jun signal,MC3T3-E1 cells [4]; time course 0-60 min,time-dependently increased
